Data published in US20230372318A1, “METHODS FOR TREATING A SUBJECT HAVING MULTIPLE SYSTEM ATROPHY” (Theravance Biopharma R&D IP, LLC, priority 2022, published 2023).

What was measured:
human recombinant DAT = biological target: T1, human recombinant DAT (Homo sapiens, UniProt Q01959); experiment: Neurotransmitter uptake inhibition, [3H]-DA, hDAT cells; format: cell-based; conditions: mean, 3 to 9 experiments
T1 construct: expressed in transfected cells; host or cells: CHO-K1
From the text: (§1) The in vitro pharmacology of ampreloxetine at human recombinant and rat native monoamine transporters was characterized as described in Smith et al., Inter. J. Neuropsychopharmcol. (2015) 1-11; and Tsuruda et al., J. Pharmacol. Toxicol. Meth. (2010) 61:192-204. See also, e.g., U.S. Pat. Nos. 8,304,432 B2 and 8,304,433 B2. Radioligands were sourced commercially (Perkin Elmer LifeSciences or GE Healthcare Life Sciences).
(§2) Briefly, membranes prepared from HEK293 (Human Embryonic Kidney 293) or CHO-K1 (Chinese Hamster Ovary-K1) cells stably transfected with human recombinant SERT (HEK293-hSERT), NET (HEK293-hNET), or DAT (CHO-K1-hDAT) were incubated for 1 hr at 22° C. in the absence, or presence, of 4-[2-(2,4,6-trifluorophenoxymethyl)phenyl]piperidine and [^3H]-citalopram (1.0 nM) for SERT, [^3H]-nisoxetine (2.0 nM) for NET, and [^3H]-WIN35428 (3.0 nM) for DAT in 50 mM Tris-HCl, 120 mM NaCl, 5 mM KCl, 0.025% BSA, 100 μM ascorbic acid, pH 7.4. Rat cortical membrane preparations were incubated with [^3H]-citalopram (2.0 nM) for SERT or [^3H]-nisoxetine (4.0 nM) for NET for 1 hr at 22° C. […] Binding and uptake assays were terminated by rapid filtration and radioactivity determined by liquid scintillation spectroscopy. […] Selectivity for NET (rounded to one significant figure) was determined as follows: […]

rat native NET = biological target: T2, rat native NET (Rattus norvegicus, UniProt Q63380); experiment: Radioligand binding, [3H]-nisoxetine, rat cortical membranes; conditions: mean (95% confidence intervals)
T2 construct: human recombinant and rat native monoamine transporters; from tissue; host or cells: rat cerebral cortex (membranes; synaptosomes)
T2 sequence (Q63380 1-617): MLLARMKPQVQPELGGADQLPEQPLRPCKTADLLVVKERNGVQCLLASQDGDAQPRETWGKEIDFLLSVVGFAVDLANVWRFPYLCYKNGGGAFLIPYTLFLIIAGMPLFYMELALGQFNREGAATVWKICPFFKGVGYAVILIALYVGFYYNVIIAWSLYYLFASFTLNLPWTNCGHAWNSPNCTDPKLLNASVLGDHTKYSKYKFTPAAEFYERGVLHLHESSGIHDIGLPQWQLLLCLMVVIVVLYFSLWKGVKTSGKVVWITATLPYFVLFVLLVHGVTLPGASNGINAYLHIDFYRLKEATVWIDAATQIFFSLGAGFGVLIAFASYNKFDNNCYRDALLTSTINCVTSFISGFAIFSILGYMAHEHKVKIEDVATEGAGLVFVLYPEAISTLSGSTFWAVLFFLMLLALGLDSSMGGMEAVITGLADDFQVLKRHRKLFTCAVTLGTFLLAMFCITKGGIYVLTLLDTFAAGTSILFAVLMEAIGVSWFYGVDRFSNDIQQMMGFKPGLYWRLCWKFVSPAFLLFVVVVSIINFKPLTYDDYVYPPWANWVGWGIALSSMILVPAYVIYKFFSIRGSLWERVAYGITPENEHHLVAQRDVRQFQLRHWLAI
From the text: as §1, §2

[1] = system: heart rate (HR) and mean arterial pressure (MAP); experiment: Cardiovascular model in anesthetized rat: intrinsic effect on MAP and HR; format: in vivo; conditions: anesthetized rats
Procedure: These studies were conducted to assess the effect of a single administration of ampreloxetine on heart rate (HR) and mean arterial pressure (MAP) in anesthetized rats. Using this cardiovascular model, the intrinsic effect on HR and the inhibition of tyramine pressor response were evaluated as surrogate measures that reflect the ability of ampreloxetine to inhibit norepinephrine transporters in the periphery.
Normotensive male Sprague-Dawley rats weighing between 250-350 g were anesthetized with an intraperitoneal injection (IP) of thiobutabarbital (Inactin). All animals were kept under complete anesthesia (i.e., absence of response to toe pinch test) for the surgery and for the duration of the study. The right common carotid artery and jugular vein were isolated and catheterized. The trachea was intubated to keep the airway open during the study. After completion of surgery, the arterial catheter was connected to a pressure transducer and baseline blood pressure [Systolic (SBP), Mean Arterial (MAP) and Diastolic (DBP)] and heart rate (HR) were recorded using the Notocord-HEM data acquisition system. Following at least 60 min of baseline (i.e., the last 10 min was stable), vehicle (10% Tween20, 2 mL/kg, IP) was administered and any potential effect was monitored for at least 10 min. After this period, rats were injected with either vehicle or ampreloxetine ([…], 2 mL/kg, IP) and changes in MAP and HR were monitored for 25 min. Rats were then challenged intravenously via the jugular vein catheter, with non-cumulative bolus doses of tyramine (0.03, 0.1, 0.3, and 1 mg/kg, 1 mL/kg, IV) given at 5 min intervals. After the last dose of tyramine, data acquisition continued for another 10 min before the experiment was terminated. In a separate group of animals, blood was collected to assess the concentration of ampreloxetine in plasma at 15 min and 60 min after dosing. Free plasma concentrations obtained from 15 min were used to construct the concentration response curve (CRC) to MAP and HR while concentrations from 60 min were used for the tyramine CRC. Animals were euthanized by carbon dioxide asphyxiation followed by thoracotomy.
Intrinsic hemodynamic effects were reported as the maximum change in MAP or HR induced by ampreloxetine before tyramine challenge. Inhibition of tyramine effect was normalized to the response to 1 mg/kg dose of tyramine in the vehicle control group. Concentration response curves (CRCs) of the change in MAP, HR and inhibition of tyramine response were analyzed through iterative curve fitting to a logistic equation using Prism 5.00™ (GraphPad, Inc.). The equation used was as follows:
Y=(Bottom+Top−Bottom)/(1+10^((Log EC50−X)*HillSlope)) […]

[2] = system: subjects with attention-deficit hyperactivity disorder and fibromyalgia; conditions: 5 mg or 20 mg once per day for 6 weeks; cited from earlier work

T1 sequence (Q01959 whole entry): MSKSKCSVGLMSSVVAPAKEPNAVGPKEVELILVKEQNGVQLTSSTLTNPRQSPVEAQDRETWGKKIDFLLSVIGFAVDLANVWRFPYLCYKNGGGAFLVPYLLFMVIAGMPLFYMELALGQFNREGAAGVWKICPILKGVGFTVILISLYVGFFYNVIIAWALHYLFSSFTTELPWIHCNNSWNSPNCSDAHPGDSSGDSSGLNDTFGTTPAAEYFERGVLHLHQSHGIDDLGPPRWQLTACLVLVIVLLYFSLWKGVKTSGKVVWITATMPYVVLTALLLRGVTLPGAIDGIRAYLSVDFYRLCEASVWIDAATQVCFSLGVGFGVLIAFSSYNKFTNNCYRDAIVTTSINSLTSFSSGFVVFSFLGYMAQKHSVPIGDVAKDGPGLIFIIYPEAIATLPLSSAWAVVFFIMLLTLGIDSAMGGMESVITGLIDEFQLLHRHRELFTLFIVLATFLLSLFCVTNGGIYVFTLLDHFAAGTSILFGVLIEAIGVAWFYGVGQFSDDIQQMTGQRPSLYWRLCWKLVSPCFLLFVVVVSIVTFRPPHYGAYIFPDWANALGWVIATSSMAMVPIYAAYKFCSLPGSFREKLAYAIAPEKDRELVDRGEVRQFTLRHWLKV

## Fc1cc(F)c(OCc2ccccc2C2CCNCC2)c(F)c1 [Ampreloxetine, 4-[2-(2,4,6-trifluorophenoxymethyl)phenyl]piperidine]
Human recombinant DAT
  Neurotransmitter Uptake Inhibition: pIC50, DAT: 6.8
Rat native NET
  Transporter Binding: pKi, NET: 8.7 (8.5, 8.9)
[1]; 0.01-30 mg/kg IP
  Effect on MAP and HR: dose dependently increased MAP and HR
  Maximum change in HR: 28.1 (22.4-33.7) bpm
  Maximum change in MAP: 13.2 (4.4-22.1) mm Hg
[1]; IP, free plasma concentration at 15 min
  HR potency (HR EC25), free plasma concentration giving 25 bpm change in HR: 8.6 nM
[2]
  Safety and tolerability: generally well tolerated with no clinically significant safety signals
